The source of these data is US5256559A, “Methods and compositions for inhibiting platelet aggregation” (Biogen, Inc., priority 1991, dated 1993).

Where two headings read alike, the source gives them in different places.

For orientation: Kd means a measure of binding affinity in units of concentration.

For one assay, the system named is plasma. Nature of the assay: activated partial thromboplastin time (APTT) of plasma from patients recovered from heparin-induced thrombocytopenia. Details: species or system human. The settings on record: concentrations used in the platelet studies, FIGS. 12A and 12B.
The target of another assay is thrombin (Homo sapiens, UniProt P00734). The settings on record: cited from earlier work.

Experimental for plasma: We isolated whole blood from patients who had recovered from heparin-induced thrombocytopenia. We then centrifuged the blood at 4° C. for 15 minutes at 2,000× g in a Sorval rotor to obtain plasma. […] We measured APTT semi-automatically using a Coagamate XC (General Diagnostics Organon Teknika).

For the substance heparin, the “prolongation of APTT” value in the assay on plasma is “sufficient to prolong APTT into the desired therapeutic range”. With Hirudin, the equilibrium dissociation constant (Kd) at thrombin (overall tight binding, read-out: Kd, binding to thrombin in a 1:1 stoichiometric complex) is approximately 0.02 nM; on thrombin (site separate from the catalytic site, read-out: Kd, "low" affinity site on the thrombin molecule), approximately 10 nM.
